Assay results reported in ChEMBL document CHEMBL4402608 (J Med Chem, 2020).

Assays:
Histamine H4 receptor [1] = target: T1, Histamine H4 receptor (Homo sapiens, UniProt Q9H3N8); test: Displacement of [3H]-Histamine from recombinant human histamine H4 receptor expressed in HEKT cell membranes at 10 uM measured after 90 mins by microbeta scintillation counting method relative to control; conditions: probe [3H]-Histamine
[2] = Displacement of [3H]-Flunitrazepam from rat brain GABA(A)/BzR site measured after 90 mins by microbeta scintillation counting method
D(2) dopamine receptor [3] = target: T2, D(2) dopamine receptor (Homo sapiens, UniProt P14416); test: Agonist activity at human D2RL expressed in CHOK1/human U2OS cells assessed as induction of beta-arrestin recruitment at 10 uM measured after 90 mins by beta-galactosidase based PathHunter assay; assay type: cell-based
T2 sequence (P14416 whole entry): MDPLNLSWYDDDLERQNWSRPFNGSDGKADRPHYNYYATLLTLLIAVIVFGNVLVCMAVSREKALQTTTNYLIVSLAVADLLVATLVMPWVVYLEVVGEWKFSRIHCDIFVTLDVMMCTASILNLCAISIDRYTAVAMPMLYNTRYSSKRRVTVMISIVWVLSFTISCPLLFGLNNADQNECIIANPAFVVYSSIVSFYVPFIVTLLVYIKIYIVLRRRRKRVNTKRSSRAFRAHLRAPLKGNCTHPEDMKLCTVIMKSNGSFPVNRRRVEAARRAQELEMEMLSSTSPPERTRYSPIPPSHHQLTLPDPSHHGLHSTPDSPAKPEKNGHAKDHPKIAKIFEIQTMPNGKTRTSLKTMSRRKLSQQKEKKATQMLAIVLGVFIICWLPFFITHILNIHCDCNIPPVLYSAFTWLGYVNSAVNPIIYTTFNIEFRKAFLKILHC

D(4) dopamine receptor = D(4) dopamine receptor (Homo sapiens, UniProt P21917); test: Displacement of [3H]-N-methylspiperone from recombinant human D4 receptor stably expressed in HEK cell membranes measured after 90 mins by microbeta scintillation counting method
[4] = target: Atypical chemokine receptor 3 (Homo sapiens, UniProt P25106); test: Agonist activity at human PK1-tgged CXCR7 expressed in CHOK1 cells assessed as induction of beta-arrestin recruitment at 10 uM measured after 90 mins by beta-galactosidase based PathHunter assay; assay type: cell-based
GABA(A)/BzR site = test: Displacement of [3H]-Flunitrazepam from rat brain GABA(A)/BzR site at 10 uM measured after 90 mins by microbeta scintillation counting method relative to control; conditions: probe [3H]-Flunitrazepam
[5] = target: Beta-1 adrenergic receptor (Homo sapiens, UniProt P08588); test: Displacement of [125I]-pindolol from recombinant human beta1 adrenergic receptor expressed in CHO Flp-In cell membranes at 10 uM measured after 90 mins by microbeta scintillation counting method relative to control; conditions: probe [125I]-pindolol
Chain of Beta-1 adrenergic receptor (P08588 whole entry): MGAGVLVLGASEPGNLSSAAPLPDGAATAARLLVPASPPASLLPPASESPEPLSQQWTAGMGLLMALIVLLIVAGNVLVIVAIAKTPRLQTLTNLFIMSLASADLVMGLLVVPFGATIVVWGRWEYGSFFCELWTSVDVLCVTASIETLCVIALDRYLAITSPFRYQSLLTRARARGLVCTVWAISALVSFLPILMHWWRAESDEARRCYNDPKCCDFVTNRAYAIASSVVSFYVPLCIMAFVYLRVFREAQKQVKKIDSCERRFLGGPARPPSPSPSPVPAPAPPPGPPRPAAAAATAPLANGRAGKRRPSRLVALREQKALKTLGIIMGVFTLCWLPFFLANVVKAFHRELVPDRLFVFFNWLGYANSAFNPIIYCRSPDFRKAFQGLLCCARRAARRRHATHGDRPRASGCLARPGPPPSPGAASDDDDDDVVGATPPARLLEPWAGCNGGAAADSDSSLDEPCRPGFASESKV

D(2) dopamine receptor [6] = target: T2, D(2) dopamine receptor; test: Agonist activity at human D2RS expressed in CHOK1/human U2OS cells assessed as induction of beta-arrestin recruitment at 10 uM measured after 90 mins by beta-galactosidase based PathHunter assay; assay type: cell-based
5HT5A receptor = 5HT5A receptor (Homo sapiens, UniProt P47898); test: Displacement of [3H]-LSD from recombinant human 5HT5A receptor stably expressed in Flp-In CHO cell membranes at 10 uM measured after 90 mins by microbeta scintillation counting method relative to control; conditions: probe [3H]-LSD
Chain of 5HT5A receptor (P47898 whole entry): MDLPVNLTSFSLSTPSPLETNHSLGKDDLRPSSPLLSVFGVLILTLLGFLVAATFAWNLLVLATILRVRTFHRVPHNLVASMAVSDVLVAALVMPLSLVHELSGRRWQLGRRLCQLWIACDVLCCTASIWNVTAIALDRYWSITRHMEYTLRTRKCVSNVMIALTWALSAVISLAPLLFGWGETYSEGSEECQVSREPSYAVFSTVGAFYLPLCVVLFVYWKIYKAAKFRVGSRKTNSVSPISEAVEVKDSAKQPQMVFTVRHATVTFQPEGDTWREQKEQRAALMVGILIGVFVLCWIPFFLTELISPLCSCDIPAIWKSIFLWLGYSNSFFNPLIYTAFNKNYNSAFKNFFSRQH

GABA PBR = test: Displacement of [3H]-PK11195 from rat brain GABA PBR at 10 uM measured after 90 mins by microbeta scintillation counting method relative to control; conditions: probe [3H]-PK11195
[7] = target: 5-hydroxytryptamine receptor 3A (Homo sapiens, UniProt P46098)
Chain of 5-hydroxytryptamine receptor 3A (P46098 whole entry): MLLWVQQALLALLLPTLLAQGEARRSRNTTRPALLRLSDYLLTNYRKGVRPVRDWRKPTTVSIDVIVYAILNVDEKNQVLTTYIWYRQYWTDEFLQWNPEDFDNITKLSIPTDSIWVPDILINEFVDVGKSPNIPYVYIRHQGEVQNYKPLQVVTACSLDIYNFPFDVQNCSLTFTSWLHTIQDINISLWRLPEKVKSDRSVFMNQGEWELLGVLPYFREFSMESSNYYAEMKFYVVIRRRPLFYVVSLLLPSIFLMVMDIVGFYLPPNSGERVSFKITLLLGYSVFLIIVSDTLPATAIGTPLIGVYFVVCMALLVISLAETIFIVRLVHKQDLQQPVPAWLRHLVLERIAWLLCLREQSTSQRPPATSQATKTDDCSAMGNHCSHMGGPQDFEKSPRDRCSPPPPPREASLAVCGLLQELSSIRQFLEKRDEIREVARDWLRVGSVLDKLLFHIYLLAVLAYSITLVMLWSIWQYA

[8] = target: Muscarinic acetylcholine receptor M2 (Homo sapiens, UniProt P08172)
Chain of Muscarinic acetylcholine receptor M2 (P08172 whole entry): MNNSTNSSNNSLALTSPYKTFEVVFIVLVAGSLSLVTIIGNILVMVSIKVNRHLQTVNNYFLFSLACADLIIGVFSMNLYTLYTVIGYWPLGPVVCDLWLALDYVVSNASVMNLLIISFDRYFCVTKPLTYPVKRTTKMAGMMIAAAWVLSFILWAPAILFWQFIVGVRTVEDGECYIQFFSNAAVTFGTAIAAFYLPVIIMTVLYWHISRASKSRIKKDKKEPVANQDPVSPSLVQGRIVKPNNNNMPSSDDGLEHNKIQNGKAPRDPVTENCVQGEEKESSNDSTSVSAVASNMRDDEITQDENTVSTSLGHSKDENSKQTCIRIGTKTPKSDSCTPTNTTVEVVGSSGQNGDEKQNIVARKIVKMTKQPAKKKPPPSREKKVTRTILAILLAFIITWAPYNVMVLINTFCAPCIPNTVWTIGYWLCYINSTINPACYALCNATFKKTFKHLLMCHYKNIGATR

[9] = target: T3, Beta-2 adrenergic receptor (Homo sapiens, UniProt P07550); test: Displacement of [3H]-CGP12177 from recombinant human beta2 adrenergic receptor expressed in HEK Flp-In cell membranes at 10 uM measured after 90 mins by microbeta scintillation counting method relative to control; conditions: probe [3H]-CGP12177
T3 sequence (P07550 whole entry): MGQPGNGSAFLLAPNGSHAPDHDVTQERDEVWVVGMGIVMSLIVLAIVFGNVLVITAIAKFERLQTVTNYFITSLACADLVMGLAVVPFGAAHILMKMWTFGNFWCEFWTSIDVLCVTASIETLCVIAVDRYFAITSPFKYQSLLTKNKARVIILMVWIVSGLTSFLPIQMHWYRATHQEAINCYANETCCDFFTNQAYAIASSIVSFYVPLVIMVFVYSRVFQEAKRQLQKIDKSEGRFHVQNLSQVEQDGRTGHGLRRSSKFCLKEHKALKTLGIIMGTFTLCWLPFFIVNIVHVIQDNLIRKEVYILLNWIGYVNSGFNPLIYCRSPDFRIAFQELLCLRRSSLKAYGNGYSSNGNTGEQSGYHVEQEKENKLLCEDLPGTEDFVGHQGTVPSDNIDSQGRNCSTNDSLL

Histamine H4 receptor [10] = target: T1, Histamine H4 receptor
[11] = target: 5-hydroxytryptamine receptor 1B (Homo sapiens, UniProt P28222)
[12] = target: Sigma non-opioid intracellular receptor 1 (Homo sapiens, UniProt Q99720); test: Displacement of [3H]-pentazocine from sigma1 receptor (unknown origin) after 90 mins by microbeta scintillation counting method
Chain of Sigma non-opioid intracellular receptor 1 (Q99720 whole entry): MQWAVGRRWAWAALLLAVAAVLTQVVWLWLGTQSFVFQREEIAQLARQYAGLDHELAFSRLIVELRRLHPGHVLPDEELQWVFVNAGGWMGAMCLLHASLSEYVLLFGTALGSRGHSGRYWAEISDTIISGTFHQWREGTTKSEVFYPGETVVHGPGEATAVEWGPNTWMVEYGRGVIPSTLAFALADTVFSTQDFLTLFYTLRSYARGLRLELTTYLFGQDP

[13] = target: T4, Alpha-1A adrenergic receptor (Homo sapiens, UniProt P35348)
T4 sequence (P35348 whole entry): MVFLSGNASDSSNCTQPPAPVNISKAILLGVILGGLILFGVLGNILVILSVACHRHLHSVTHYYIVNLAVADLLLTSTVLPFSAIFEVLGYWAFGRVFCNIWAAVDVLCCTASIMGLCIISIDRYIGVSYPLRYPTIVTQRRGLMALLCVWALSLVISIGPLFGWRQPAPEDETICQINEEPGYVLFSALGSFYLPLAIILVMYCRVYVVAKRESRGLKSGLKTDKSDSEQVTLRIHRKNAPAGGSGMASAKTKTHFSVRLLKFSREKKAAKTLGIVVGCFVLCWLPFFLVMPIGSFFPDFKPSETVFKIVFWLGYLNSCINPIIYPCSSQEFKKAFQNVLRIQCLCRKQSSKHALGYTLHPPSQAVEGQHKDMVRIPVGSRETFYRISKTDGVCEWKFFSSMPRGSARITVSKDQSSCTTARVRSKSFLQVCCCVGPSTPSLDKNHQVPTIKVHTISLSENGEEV

[14] = target: T3, Beta-2 adrenergic receptor; test: Displacement of [3H]-CGP12177 from recombinant human beta2 adrenergic receptor expressed in HEK Flp-In cell membranes measured after 90 mins by microbeta scintillation counting method
[15] = target: T5, Alpha-2C adrenergic receptor (Homo sapiens, UniProt P18825)
T5 sequence (P18825 whole entry): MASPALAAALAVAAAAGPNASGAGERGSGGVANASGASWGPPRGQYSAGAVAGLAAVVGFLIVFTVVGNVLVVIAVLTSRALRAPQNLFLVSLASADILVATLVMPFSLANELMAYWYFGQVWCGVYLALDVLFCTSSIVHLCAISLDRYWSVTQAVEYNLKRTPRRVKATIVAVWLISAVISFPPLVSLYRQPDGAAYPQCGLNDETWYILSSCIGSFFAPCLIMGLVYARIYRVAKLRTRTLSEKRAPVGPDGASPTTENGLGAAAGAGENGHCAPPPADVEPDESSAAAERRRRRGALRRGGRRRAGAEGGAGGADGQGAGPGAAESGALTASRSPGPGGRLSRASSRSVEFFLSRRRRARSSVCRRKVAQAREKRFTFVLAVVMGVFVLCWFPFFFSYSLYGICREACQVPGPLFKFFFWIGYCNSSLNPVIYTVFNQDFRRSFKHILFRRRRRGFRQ

[16] = target: 5-hydroxytryptamine receptor 5A (Homo sapiens, UniProt P47898)
Chain of 5-hydroxytryptamine receptor 5A (P47898 whole entry): as the sequence (P47898 whole entry) above

[17] = target: Muscarinic acetylcholine receptor M3 (Homo sapiens, UniProt P20309)
Chain of Muscarinic acetylcholine receptor M3 (P20309 whole entry): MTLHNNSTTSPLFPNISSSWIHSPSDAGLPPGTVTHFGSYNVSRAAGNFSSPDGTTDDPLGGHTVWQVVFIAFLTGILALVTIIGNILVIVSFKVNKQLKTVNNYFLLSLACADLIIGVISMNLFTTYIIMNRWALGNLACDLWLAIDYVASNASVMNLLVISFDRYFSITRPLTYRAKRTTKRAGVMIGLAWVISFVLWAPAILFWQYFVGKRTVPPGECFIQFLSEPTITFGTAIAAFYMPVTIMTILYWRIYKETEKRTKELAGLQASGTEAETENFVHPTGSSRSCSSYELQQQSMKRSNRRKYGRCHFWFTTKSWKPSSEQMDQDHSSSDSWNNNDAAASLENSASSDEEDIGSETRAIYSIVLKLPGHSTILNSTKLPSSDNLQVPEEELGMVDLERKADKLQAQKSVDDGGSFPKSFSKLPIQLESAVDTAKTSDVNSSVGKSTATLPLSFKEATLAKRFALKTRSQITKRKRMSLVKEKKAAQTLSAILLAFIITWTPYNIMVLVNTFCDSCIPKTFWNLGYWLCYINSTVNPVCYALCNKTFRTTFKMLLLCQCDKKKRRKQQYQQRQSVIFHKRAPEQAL

[18] = target: Delta-type opioid receptor (Homo sapiens, UniProt P41143)
Chain of Delta-type opioid receptor (P41143 whole entry): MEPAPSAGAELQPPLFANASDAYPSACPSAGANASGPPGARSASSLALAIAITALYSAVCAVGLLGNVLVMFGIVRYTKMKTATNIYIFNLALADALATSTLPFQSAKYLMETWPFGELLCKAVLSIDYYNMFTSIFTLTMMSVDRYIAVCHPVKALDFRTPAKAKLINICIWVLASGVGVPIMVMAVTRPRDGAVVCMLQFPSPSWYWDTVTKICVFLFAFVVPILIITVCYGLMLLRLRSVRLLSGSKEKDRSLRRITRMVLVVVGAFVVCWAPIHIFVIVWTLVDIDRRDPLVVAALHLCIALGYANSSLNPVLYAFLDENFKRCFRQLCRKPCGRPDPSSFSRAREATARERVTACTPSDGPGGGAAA

[19] = target: 5-hydroxytryptamine receptor 1D (Homo sapiens, UniProt P28221)
[20] = target: 5-hydroxytryptamine receptor 1E (Homo sapiens, UniProt P28566)
D(1B) dopamine receptor = D(1B) dopamine receptor (Homo sapiens, UniProt P21918)
[21] = target: beta3 adrenergic receptor (Homo sapiens, UniProt P13945)
[22] = target: 5-hydroxytryptamine receptor 6 (Homo sapiens, UniProt P50406)
Chain of 5-hydroxytryptamine receptor 6 (P50406 whole entry): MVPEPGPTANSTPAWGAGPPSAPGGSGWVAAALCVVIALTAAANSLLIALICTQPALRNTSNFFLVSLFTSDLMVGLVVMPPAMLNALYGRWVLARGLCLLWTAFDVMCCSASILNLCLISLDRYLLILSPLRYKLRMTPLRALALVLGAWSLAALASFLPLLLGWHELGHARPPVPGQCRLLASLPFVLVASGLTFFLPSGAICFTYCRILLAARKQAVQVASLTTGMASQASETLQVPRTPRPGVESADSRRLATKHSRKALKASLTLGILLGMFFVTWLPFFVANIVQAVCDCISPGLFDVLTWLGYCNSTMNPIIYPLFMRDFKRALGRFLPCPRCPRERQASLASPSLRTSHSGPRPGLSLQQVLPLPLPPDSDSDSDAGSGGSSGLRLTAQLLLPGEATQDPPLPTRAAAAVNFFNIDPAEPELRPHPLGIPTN

T1 sequence (Q9H3N8 whole entry): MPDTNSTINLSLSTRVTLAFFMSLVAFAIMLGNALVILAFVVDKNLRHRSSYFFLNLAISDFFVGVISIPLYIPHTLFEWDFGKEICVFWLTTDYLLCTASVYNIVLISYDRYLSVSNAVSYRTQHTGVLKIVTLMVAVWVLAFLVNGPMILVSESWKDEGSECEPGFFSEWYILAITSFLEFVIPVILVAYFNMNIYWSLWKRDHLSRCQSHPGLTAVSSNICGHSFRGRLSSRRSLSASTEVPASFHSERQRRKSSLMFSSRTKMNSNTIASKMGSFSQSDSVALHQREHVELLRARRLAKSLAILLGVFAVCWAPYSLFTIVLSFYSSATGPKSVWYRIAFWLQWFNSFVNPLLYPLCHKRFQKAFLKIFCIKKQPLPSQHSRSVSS

CCCN(CC[C@]1(O)C[C@H](NC(=O)c2ccc3ccccc3c2)C1)[C@H]1CCc2nc(N)sc2C1
inhibition at […], 10 µM (Histamine H4 receptor [1]): < 50%
Ki [2]: Not Active
Activity (D(2) dopamine receptor [3]): Active
Ki (D(4) dopamine receptor): 0.045 µM
Activity [4]: Active
inhibition at […], 10 µM (GABA(A)/BzR site): < 50%
inhibition at […], 10 µM [5]: < 50%
Activity (D(2) dopamine receptor [6]): Active
inhibition at […], 10 µM (5HT5A receptor): < 50%
inhibition at […], 10 µM (GABA PBR): < 50%

CCCN[C@H]1CCc2nc(N)sc2C1 [PRAMIPEXOLE]
Ki [7]: > 10 µM
Ki [8]: > 10 µM
inhibition at […], 10 µM [9]: > 50%
Ki (Histamine H4 receptor [10]): > 10 µM
Ki [11]: 3.51 µM
Ki [12]: 4.45 µM
inhibition at […], 10 µM (Histamine H4 receptor [1]): > 50%
Ki [13]: > 10 µM
Ki [14]: > 10 µM
Ki [15]: 0.0522 µM
Ki [16]: > 10 µM
Ki [17]: > 10 µM
inhibition at […], 10 µM [5]: < 50%
inhibition at […], 10 µM (5HT5A receptor): > 50%
Ki [18]: > 10 µM
Ki [19]: > 10 µM
Ki [20]: > 10 µM
Ki (D(1B) dopamine receptor): > 10 µM
Ki [21]: > 10 µM
Ki [22]: > 10 µM
